Assay results from ChEMBL document CHEMBL1201862, “PubChem BioAssay data set” (2004).
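These data come from cells grown in 96-well plates and exposed to compound for 48 hours at five concentrations. At the GI50, growth is halved.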 The source made the active and inactive calls. Cut-off read from the data, not from the text of the source: active = GI50 up to about 1.1 µM and inactive = higher.

Experiments:
Experiment in all cases: growth of human tumour cells (NCI), 48 h
786-0 = tested on: 786-0
BT-549 = tested on: BT-549
COLO 205 = tested on: COLO 205
DU-145 = tested on: DU-145
EKVX = tested on: EKVX
K562 = tested on: K562
KM12 = tested on: KM12
LOX IMVI = tested on: LOX IMVI
NCI-H226 = tested on: NCI-H226
NCI-H23 = tested on: NCI-H23
OVCAR-5 = tested on: OVCAR-5
OVCAR-8 = tested on: OVCAR-8
SF-295 = tested on: SF-295
T47D = tested on: T47D
TK-10 = tested on: TK-10
U-251 = tested on: U-251
UACC-257 = tested on: UACC-257
HOP-92 = tested on: HOP-92
SK-MEL-2 = tested on: SK-MEL-2

Structure (SMILES)	GI50 (786-0)	GI50 (BT-549)	GI50 (COLO 205)	GI50 (DU-145)	GI50 (EKVX)	GI50 (K562)	GI50 (KM12)	GI50 (LOX IMVI)	GI50 (NCI-H226)	GI50 (NCI-H23)	GI50 (OVCAR-5)	GI50 (OVCAR-8)	GI50 (SF-295)	GI50 (T47D)	GI50 (TK-10)	GI50 (U-251)	GI50 (UACC-257)	GI50 (HOP-92)	GI50 (SK-MEL-2)
C1COCCOP2(N3CC3)=NP(N3CC3)(=NP(N3CC3)(N3CC3)=N2)OCCOCCO1 (stereo not given)	> 100 µM (inactive)	> 100 µM (inactive)	> 100 µM (inactive)	37.4 µM (inactive)	> 100 µM (inactive)	> 100 µM (inactive)	> 100 µM (inactive)	25.4 µM (inactive)	> 100 µM (inactive)	> 100 µM (inactive)	> 100 µM (inactive)	> 100 µM (inactive)	> 100 µM (inactive)	70.3 µM (inactive)	> 100 µM (inactive)	> 100 µM (inactive)	> 100 µM (inactive)	–	–
CCOC(=O)[C@@]12NN=N[C@@H]1[C@H]1CO[C@H](c3ccccc3)N1C2=O	5.97 µM (inactive)	11.7 µM (inactive)	10.2 µM (inactive)	13.8 µM (inactive)	13.9 µM (inactive)	–	13.1 µM (inactive)	2.18 µM (inactive)	–	12.5 µM (inactive)	14.2 µM (inactive)	5.68 µM (inactive)	11.6 µM (inactive)	5.22 µM (inactive)	16.8 µM (inactive)	4.54 µM (inactive)	6.44 µM (inactive)	1.64 µM (inactive)	7.21 µM (inactive)
CC(=O)NNc1nc(C)c(C(=O)/C=C/C=C/c2ccccc2)s1	62.7 µM (inactive)	> 100 µM (inactive)	> 100 µM (inactive)	54.5 µM (inactive)	24.2 µM (inactive)	–	29.6 µM (inactive)	> 100 µM (inactive)	> 100 µM (inactive)	> 100 µM (inactive)	> 100 µM (inactive)	> 100 µM (inactive)	> 100 µM (inactive)	33.2 µM (inactive)	> 100 µM (inactive)	71.9 µM (inactive)	66.7 µM (inactive)	> 100 µM (inactive)	–
CCO/C(Cc1ccc(Cl)cc1)=N/NC(N)=S	> 100 µM (inactive)	> 100 µM (inactive)	> 100 µM (inactive)	> 100 µM (inactive)	> 100 µM (inactive)	83 µM (inactive)	> 100 µM (inactive)	> 100 µM (inactive)	> 100 µM (inactive)	> 100 µM (inactive)	> 100 µM (inactive)	> 100 µM (inactive)	> 100 µM (inactive)	27.8 µM (inactive)	> 100 µM (inactive)	> 100 µM (inactive)	> 100 µM (inactive)	> 100 µM (inactive)	> 100 µM (inactive)
C/C(=N\Nc1nc2ccccc2s1)c1cnccn1	2.13 µM (inactive)	11.1 µM (inactive)	0.344 µM (active)	4.34 µM (inactive)	0.146 µM (active)	1.67 µM (inactive)	2.07 µM (inactive)	–	0.247 µM (active)	1.94 µM (inactive)	3.33 µM (inactive)	1.7 µM (inactive)	2.76 µM (inactive)	0.769 µM (active)	–	3.67 µM (inactive)	4.13 µM (inactive)	1.51 µM (inactive)	7.5 µM (inactive)
O=C(OCCNC(=O)N1CC1)OCCNC(=O)N1CC1	> 10 µM (inactive)	> 10 µM (inactive)	> 10 µM (inactive)	> 10 µM (inactive)	> 10 µM (inactive)	> 10 µM (inactive)	> 10 µM (inactive)	> 10 µM (inactive)	> 10 µM (inactive)	> 10 µM (inactive)	> 10 µM (inactive)	> 10 µM (inactive)	> 10 µM (inactive)	> 10 µM (inactive)	> 10 µM (inactive)	> 10 µM (inactive)	> 10 µM (inactive)	> 10 µM (inactive)	> 10 µM (inactive)
CCOC(=O)CCC(NC(=O)N1CCN(c2c(C)nc(C)nc2O)CC1)C(=O)OCC (stereo not given)	> 100 µM (inactive)	> 100 µM (inactive)	> 100 µM (inactive)	> 100 µM (inactive)	> 100 µM (inactive)	> 100 µM (inactive)	> 100 µM (inactive)	> 100 µM (inactive)	> 100 µM (inactive)	> 100 µM (inactive)	> 100 µM (inactive)	> 100 µM (inactive)	> 100 µM (inactive)	> 100 µM (inactive)	> 100 µM (inactive)	> 100 µM (inactive)	> 100 µM (inactive)	> 100 µM (inactive)	–
Nc1sccc1S(=O)(=O)c1ccsc1N	> 100 µM (inactive)	> 100 µM (inactive)	> 100 µM (inactive)	> 100 µM (inactive)	> 100 µM (inactive)	–	> 100 µM (inactive)	> 100 µM (inactive)	> 100 µM (inactive)	> 100 µM (inactive)	> 100 µM (inactive)	> 100 µM (inactive)	> 100 µM (inactive)	> 100 µM (inactive)	> 100 µM (inactive)	> 100 µM (inactive)	> 100 µM (inactive)	> 100 µM (inactive)	> 100 µM (inactive)
CCNCC(O)COc1ccc2c(c1)[n+]([O-])nc(N)[n+]2[O-] (stereo not given)	51.6 µM (inactive)	> 100 µM (inactive)	68.9 µM (inactive)	71.3 µM (inactive)	> 100 µM (inactive)	35.2 µM (inactive)	59.3 µM (inactive)	14.3 µM (inactive)	59.2 µM (inactive)	47.4 µM (inactive)	> 100 µM (inactive)	56 µM (inactive)	34.4 µM (inactive)	81.8 µM (inactive)	> 100 µM (inactive)	42.7 µM (inactive)	> 100 µM (inactive)	–	39.6 µM (inactive)
CC1=NC(=Cc2ccc(O)cc2)C(=O)N1n1c(-c2ccccc2)nc2ccccc2c1=O	> 100 µM (inactive)	> 100 µM (inactive)	> 100 µM (inactive)	> 100 µM (inactive)	> 100 µM (inactive)	> 100 µM (inactive)	> 100 µM (inactive)	> 100 µM (inactive)	> 100 µM (inactive)	> 100 µM (inactive)	–	> 100 µM (inactive)	> 100 µM (inactive)	> 100 µM (inactive)	> 100 µM (inactive)	–	> 100 µM (inactive)	–	–
COc1ccc(C(OCC2OC(n3cnc4c(=O)n(Cc5ccccc5[N+](=O)[O-])nnc43)C(O)C2O)(c2ccccc2)c2ccc(OC)cc2)cc1 (stereo not given)	10.8 µM (inactive)	16.4 µM (inactive)	6.84 µM (inactive)	19.6 µM (inactive)	29.3 µM (inactive)	4.6 µM (inactive)	13.1 µM (inactive)	6.85 µM (inactive)	5.92 µM (inactive)	13.4 µM (inactive)	27.8 µM (inactive)	8.11 µM (inactive)	5.97 µM (inactive)	11.5 µM (inactive)	9.53 µM (inactive)	11 µM (inactive)	22.2 µM (inactive)	2.38 µM (inactive)	14.7 µM (inactive)
O=C1C=C(c2ccccc2)O/C1=C/C(=O)c1ccc(Cl)cc1	15.9 µM (inactive)	16.2 µM (inactive)	16.1 µM (inactive)	37.3 µM (inactive)	90.4 µM (inactive)	8.13 µM (inactive)	20.8 µM (inactive)	13.3 µM (inactive)	> 10 µM (inactive)	> 10 µM (inactive)	17.6 µM (inactive)	23.1 µM (inactive)	–	> 10 µM (inactive)	20.2 µM (inactive)	15.7 µM (inactive)	20.7 µM (inactive)	19.2 µM (inactive)	–
CC(C)[Si](OC1=CCC[C@H]2NC(=O)[C@@H](Cc3ccc([N+](=O)[O-])cc3)[C@@]12C)(C(C)C)C(C)C	5.11 µM (inactive)	3.76 µM (inactive)	3.98 µM (inactive)	9.46 µM (inactive)	6.37 µM (inactive)	3.06 µM (inactive)	3.73 µM (inactive)	4.9 µM (inactive)	–	5.53 µM (inactive)	8.65 µM (inactive)	11.6 µM (inactive)	4.59 µM (inactive)	4.73 µM (inactive)	11 µM (inactive)	–	5.47 µM (inactive)	–	12.8 µM (inactive)
CN(C)C(Cc1c[nH]cn1)C(=O)N1CCCC1C(N)=O (stereo not given)	> 100 µM (inactive)	> 100 µM (inactive)	> 100 µM (inactive)	> 100 µM (inactive)	> 100 µM (inactive)	> 100 µM (inactive)	> 100 µM (inactive)	> 100 µM (inactive)	> 100 µM (inactive)	> 100 µM (inactive)	> 100 µM (inactive)	> 100 µM (inactive)	> 100 µM (inactive)	> 100 µM (inactive)	> 100 µM (inactive)	> 100 µM (inactive)	–	> 100 µM (inactive)	–
C=Cc1c(C)c(O)cc2c1-c1ccc(O)c(C)c1CC2	15.8 µM (inactive)	19.5 µM (inactive)	19.3 µM (inactive)	14.1 µM (inactive)	1.97 µM (inactive)	–	14.3 µM (inactive)	16.1 µM (inactive)	17.3 µM (inactive)	17.1 µM (inactive)	27.2 µM (inactive)	17.5 µM (inactive)	14.9 µM (inactive)	10.9 µM (inactive)	13.1 µM (inactive)	14.3 µM (inactive)	14.8 µM (inactive)	23.2 µM (inactive)	17.1 µM (inactive)
CCN(CC)CCNc1ccc2ncn3c4c(OC)ccc(O)c4c(=O)c1c23	8.93 µM (inactive)	37.3 µM (inactive)	5.87 µM (inactive)	19.3 µM (inactive)	46.8 µM (inactive)	8.13 µM (inactive)	8.17 µM (inactive)	–	45.8 µM (inactive)	21.8 µM (inactive)	42.4 µM (inactive)	6.93 µM (inactive)	16.6 µM (inactive)	> 100 µM (inactive)	33 µM (inactive)	12.6 µM (inactive)	> 100 µM (inactive)	2.74 µM (inactive)	> 100 µM (inactive)
